Values quoted from earlier work as cited in patent US20240261272A1, “LPA1 ANTAGONISTS FOR TREATING INTERSTITIAL LUNG DISEASE” (Bristol-Myers Squibb Company, priority 2022, published 2024).

Key:
patients with PPF = conditions: 52-week study period; cited from earlier work
patients with IPF = conditions: cited from earlier work

| SMILES | progression of lung fibrosis, annual rate of decline in FVC versus placebo (in words) (patients with PPF) | decline in lung function (in words) (patients with IPF) |
| --- | --- | --- |
| COC(=O)c1ccc2c(c1)NC(=O)/C2=C(\Nc1ccc(N(C)C(=O)CN2CCN(C)CC2)cc1)c1ccccc1 [nintedanib] | slower progression of lung fibrosis than those who received placebo | significantly reduce the decline in lung function |
| Cc1ccc(=O)n(-c2ccccc2)c1 [pirfenidone] |  | significantly reduce the decline in lung function |
